Experimental data published in US9581729B2, “Compound, photosensitive resin composition comprising the same and color filter” (Samsung SDI Co., Ltd., priority 2015, dated 2017).

Experiment: Solubility in dilution solvent (PGMEA)
Format: physicochemical
Details: 25° C., 100 rpm, 1 hour
Description: A dilution solvent (PGMEA) is respectively added to 0.5 g of each compound according to Synthesis Examples 6 to 13 and Comparative Synthesis Examples 1 and 2, and each solution is agitated with a mixrotor (Mixrotor VMR-5, Iuchi Seieido Co., Ltd.) at 25° C. and 100 rpm for 1 hour, and solubility result of each compound is provided in Table 1. Solubility Evaluation Reference Dissolution of a compound (a solute) in an amount of greater than or equal to 10 wt % based on the total weight of the dilution solvent: ∘ Dissolution of a compound (a solute) in an amount ranging from greater than or equal 5 wt % and less than 10 wt % based on the total weight of the dilution solvent: Δ Dissolution of a compound (a solute) in an amount ranging from less than 5 wt % based on the total weight of the dilution solvent: X

| Compound | Solubility |
| --- | --- |
| Clc1c(Cl)c2c(c(Cl)c1Oc1ccccc1)/C1=N/c3c4c(Cl)c(Cl)c(Oc5ccccc5)c(Cl)c4c4[n]3[Zn][n]3/c(c5c(Cl)c(Cl)c(Oc6ccccc6)c(Cl)c5/c3=N/C2=N1)=N\C1=NC(=N\4)/c2c(Cl)c(Oc3ccccc3)c(Cl)c(Cl)c21 [Comparative Synthesis Example 1] | Δ (Dissolution of a compound (a solute) in an amount ranging from greater than or equal 5 wt % and less than 10 wt % based on the total weight of the dilution solvent) |
| CCCCCOc1c(Cl)c(Cl)c2c(c1Cl)C1=NC/2=N\c2c3c(Cl)c(Cl)c(OCCCCC)c(Cl)c3c3[n]2[Zn][n]2/c(c4c(Cl)c(Cl)c(OCCCCC)c(Cl)c4/c2=N/1)=N\C1=NC(=N\3)/c2c(Cl)c(Cl)c(OCCCCC)c(Cl)c21 [Comparative Synthesis Example 2] | Δ (Dissolution of a compound (a solute) in an amount ranging from greater than or equal 5 wt % and less than 10 wt % based on the total weight of the dilution solvent) |
